From US11446253B2, “Ionic liquids for internal delivery” (priority 2017, dated 2022)
≈ marks a conversion by molar mass, not a printed value. Where “and” joins values, the source holds several entries; their conditions need not be identical. Equal entries are not always repeated. Entries after “also recorded” stand apart in the source; their conditions may differ. Where two headings read alike, the source gives them in different places.

Tests used:
[1] = Solubility of hydrophobic drugs in CAGE; settings: organic solvent or mixture
4T1 cells = assay: 4T1 cell viability, calcein-AM assay; assay type: cell-based; settings: drug solubilized in CAGE (1:1) vs DMSO
Procedure: In vitro anticancer efficacy of drug-loaded liposomes was determined using calcein-AM cell viability assay (Life Technologies). 4T1 cells were seeded in a 96-well cell culture plate at a density of 11,000 cells per well or 1,000 cells per well in a total volume of 100 μL media and allowed to adhere overnight. […] After incubation with drug, media was aspirated and replaced with 1 μM calcein-AM in PBS for 30 minutes at room temperature. Fluorescence intensity of intracellularly hydrolyzed calcein-AM was measured using excitation and emission wavelengths of 490 nm and 520 nm. Fractional cell inhibition was calculated by subtracting fluorescence of live cells in experimental wells from those of untreated cells and normalizing against untreated cells.

rats = settings: cited from earlier work
physchem = settings: organic solvent or mixture
Caco-2 cells [2] = assay: Tight junction integrity (TEER) in Caco-2 cells; assay type: cell-based, human
Procedure: […] Furthermore, TEER was measured at every time point when aliquots were withdrawn from the transwells and plotted as % change from initial value vs time.
TEER values were recorded for each insert. […] TEER was plotted as % change from initial value vs time.

[3] = tested on: non-diabetic male Wistar rats; assay: Blood glucose lowering after oral administration in enterically coated capsules; assay type: in vivo, rat; settings: oral controls, 12 h
Procedure: (§1) For the oral efficacy study, adult non-diabetic male Wistar rats were fasted overnight but given free access to water. On the next day, the capsules were administered to the rats using an oral gavage followed by subcutaneous administration of 5 mg/kg metoclopramide HCl to promote gastric emptying. Blood glucose was thereafter measured using a commercial glucose meter and subsequently every hour till 12 h. Rats were fasted throughout the period of study. […] In addition, the efficacy of subcutaneously injected 2 U/kg insulin-saline was also evaluated. […] The results were plotted as percent change in blood glucose level vs time.
as §1, with “To determine the efficacy of insulin-CAGE administered through the oral route, elongated size 9 capsules were used. […] Following this, the capsules were enterically coated three times with 12.5% w/v Eudragit® L-100 dissolved in isopropanol. For” for “For”, “Next” for “On the next”, “was” for “was also”, “time. […] After 12 h of study, rats were euthanized, and small intestinal sections were collected for tissue histology.” for “time.”

Caco-2 cells [4] = assay: GFP plasmid transfection of Caco-2 cells; assay type: cell-based, human; settings: Caco-2, CAGE in lieu of lipofectamine, P3000 0.09%
Procedure: Caco-2 cells were seeded at 80% confluency in either 96-well half area or 24-well tissue culture treated plates a day prior to adding transfection reagents. For lipofectamine transfection studies, Lipofectamine 3000 reagent (final concs. 0.07% or 0.13%) was prepared in Opti-Mem Medium and mixed. A master mix of plasmid DNA was prepared separately by diluting the GFP plasmid (50 ng/well for 96-well half area plate or 250 ng/well for 24-well plate) in Opti-Mem Medium with P3000 enhancer reagent (final conc. 0.09% v/v). The master mix of plasmid DNA was added to tubes of the diluted lipofectamine 3000 reagent at a 1:1 ratio. The mixture was allowed to incubate for 20 minutes at room temperature to allow for the plasmid to become incorporated into the cationic lipofectamine. The DNA-lipid complex mixture was then added directly to cells in complete cell culture media at final concs. of 0.07% or 0.13%. Total volume of 96-well half area plate was 100 uL and for the 24-well plate 500 uL. This transfection mixture was removed after 3 days of incubation, washed with DPBS, and replaced with complete DMEM cell culture media.
If P3000 enhancer reagent was used, the final conc. was maintained at the same 0.09%. The transfection mixtures were removed after 1 day or 3 days, washed with DPBS, and replaced with complete DMEM cell culture media.

Caco-2 cells [5] = settings: Caco-2, 12-48 h incubation
Procedure: Control wells were filled with media only. […] The plates were wrapped in foil and shaken for 20 min, then absorbance was read at 570 nm using a microplate reader (M220 Infinite Pro, Tecan Group Ltd, Morrisville, N.Y.). Absorbance readings were normalized using the non-treated cell viability values.

Caco-2 monolayers [6] = settings: for enhancement of 4 kDa FITC-dextran transport: various time points
Procedure: (§2) Before the start of the experiment, the medium in the transwells was replaced with DMEM devoid of phenol red, FBS and P/S in both the apical (200 μL) and basolateral side (600 μL) and the cells were incubated for 30 minutes. […] This was repeated at 1, 2, 3, 4 and 5 h. During the study, the transwell plates were placed inside an incubator at 37° C., 5% CO2 on a shaker rotating at 100 rpm and only taken out to remove aliquots at each time point. After the end of study at 5 h, fluorescence in the aliquots with FTIC-dextran concentrations were measured using a plate reader (BioTek Synergy NEO HTS™ microplate reader (Winooski, Vt., USA) at 485/530, 495/520 and 468/568 nm excitation/emission wavelengths, respectively. Calibration solutions for each test article were prepared and analyzed using fluorescence readings for FITC-dextran which was used to plot of basolateral chamber concentration vs time plots.

Caco-2 monolayers [7] = tested on: Caco-2 monolayers
Procedure: For transport experiments in transwells, a 3-day rapid Caco-2 growth system was used. Cells were placed in Corning® basal seeding medium (BSM) supplemented with MITO serum+ extender and seeded at density of 400,000 cells/mL on Millicell® PCF inserts placed inside 24-well plates. 500 μL of cells containing medium was placed in apical side while 1000 μL of cell free BSM was put in the basolateral side as per manufacturer recommendation. After 24 h of incubation at 37° C., 5% CO2, the medium was replaced with same volume of enterocyte differentiation medium supplemented with MITO serum+ extender for another 2-4 days.
as §2, with “During the study, the transwell plates were placed inside an incubator at 37° C., 5% CO2 on a shaker rotating at 100 rpm and only taken out to remove aliquots at each time point.” left out, “LY and coumarin-6” for “FTIC-dextran”, “LY and coumarin-6” for “FITC-dextran”

[8] = FITC labeled dextran, neat CAGE sample
Procedure: These experiments were done using skin as a model tissue. […] 50 ul of each sample was injected intradermally into one side of a 5 cm×5 cm square of porcine skin. […] The samples were incubated at RT for 2 h (while we were getting trained) and then imaged. The samples were incubated for an additional 2 h at 37° C. and imaged again. 2 h samples had different exposures (we were still learning the system). The 4 h samples were all taken at the same exposure. The size of the fluorescing area for each sample and time point was estimated by drawing a shape around the area manually using ImageJ™

Caco-2 monolayers [9] = assay: FITC-insulin transport across Caco-2 monolayers; assay type: cell-based, human
Procedure: TEER was measured on a regular basis and when it reached above 200 ohms·cm^2, indicating sufficient tight junction integrity between cells, transport study was performed.
(§3) After the end of study at 5 h, the FITC-insulin concentration in the aliquots were measured using a plate reader (Tecan, Infinite M1000, Mannedorf, Switzerland) at 495/520 nm excitation/emission wavelengths and plotted as % FITC-insulin transport vs time. Furthermore, TEER was measured at every time point when aliquots were withdrawn from the transwells and plotted as % change from initial value vs time.
TEER was measured on a regular basis and when it reached above 200 ohms. cm2, indicating sufficient tight junction integrity between cells, transport study was performed.
as §3, with “[…]” for “% change from initial value”

[10] = tested on: non-diabetic male Wistar rats; assay: Blood glucose lowering after intrajejunal administration; assay type: in vivo, rat; settings: intrajejunal controls (neat CAGE, 3 U/kg insulin-saline), 5 h
Procedure: Before the start of the study, the rats were anesthetized, abdominal hair clipped and the area prepped for surgery using 70% ethanol and betadine. An incision was made in the abdomen to expose the intestine. […] Each formulation was tested in 6 rats with the exception of saline which was tested in only 3 rats. Thereafter, intestinal section was placed back into the abdomen and the muscle and skin sutured. Blood glucose was determined using a commercial glucose meter in the beginning and at every 0.5 h till the end of study at 5 h. The animals remained anesthetized throughout the study, at the end of which they were euthanized and the intestinal section around the injection site was removed for further histological examination to determine toxicity, if any. […] The results were plotted as % change in blood glucose levels with respect to initial reading at t=0 vs time.
Before the start of the study, the rats were anesthetized, abdominal hair clipped, and the surgery area was prepped using 70% ethanol and betadine. An incision was made in the abdomen to expose the intestine. […] The time zero blood glucose was taken after the intestine was exposed i.e. immediately prior to the injections. Each formulation was tested in 6 rats with the exception of saline which was tested in only 3 rats. Thereafter, intestinal section was placed back into the abdomen and the muscle and skin sutured. Blood glucose was determined using a commercial glucose meter at the beginning and at every 0.5 h till the end of study at 5 h. Loss in body temperature in the animals during anesthesia was prevented by placing the animals on temperature controlled warming pads prior to surgery followed by additional towel cover after surgery. The animals remained anesthetized throughout the study and were euthanized after 5 h. At the end of study at 5 h, the intestinal section around the injection site was removed for further histological examination to determine toxicity, if any. […] The results were plotted as % change in blood glucose levels with respect to initial reading vs time. In addition, the saline group was considered as fasting control and graphs were plotted after subtracting blood glucose levels of the saline group.

[11] = tested on: non-diabetic male Wistar rats; assay: In vivo bioactivity of insulin isolated from CAGE after storage; design: species or system rat; settings: for blood glucose, % of initial level: 1 U/kg subcutaneous
Excerpt: Prior to insulin injections, rats were fasted overnight but given free access to water and fasting continued throughout the study to eliminate variability in blood glucose due to food consumption. The results were plotted as % change in blood glucose compared to initial level vs time.

[12] = in vivo; cited from earlier work

With `CC[C@@]1(O)C(=O)OCc2c1cc1n(c2=O)Cc2cc3ccccc3nc2-1` [Camptothecin] the solubility [1] was 54 mg/mL (≈ 155 mM) and the “effect on 4T1 cells” value (4T1 cells) was “just as effective as those solubilized in DMSO”.

For `C[N+](C)(C)CCO` [Choline], the “oral LD50” value (rats; oral) is given as 3,400 mg/kg.

For `CC(=O)O[C@H]1C(=O)[C@@]2(C)[C@H]([C@H](OC(=O)c3ccccc3)[C@]3(O)C[C@H](OC(=O)[C@H](O)[C@@H](NC(=O)c4ccccc4)c4ccccc4)C(C)=C1C3(C)C)[C@]1(OC(C)=O)CO[C@@H]1C[C@@H]2O` [Paclitaxel], the solubility (physchem) was 200 mg/mL (≈ 234 mM) and the “effect on 4T1 cells” value (4T1 cells) was “just as effective as those solubilized in DMSO”.

For `CC(C)=CCC/C(C)=C/C(=O)O` [geranic acid], the “oral LD50” value (rats; rat, in vivo, po) is listed as 3,700 mg/kg.

In the case of `CCCCCCCCCC(=O)[O-].[Na+]` [sodium caprate, reference compound], the “tight junction integrity (TEER), % of initial levels” value (Caco-2 cells [2]; 10 mM sodium caprate, end of study at 24 h) is reported as 36%.

With Choline And GEranate [CAGE] the “decrease in blood glucose of formulation controls” value [3] was “about 25%”, the GFP plasmid transfection (Caco-2 cells [4]) was “can deliver DNA into cells” and the IC50 (Caco-2 cells [5]) was 10 mM. For the same compound, the “enhancement of 4 kDa FITC-dextran transport” value (Caco-2 monolayers [6]; 25 mM CAGE) was 2-6 fold, the “enhancement of 4 kDa FITC-dextran transport” value (Caco-2 monolayers [6]; 50 mM CAGE) was 6-13 fold and the “enhancement of 4 kDa FITC-dextran transport reached” value (Caco-2 monolayers [6]; concentration-dependent, highest) was 13 fold. The “enhancement of Lucifer yellow transport” value (Caco-2 monolayers [7]; 10 mM CAGE) was about 2 fold, the “enhancement of Lucifer yellow transport” value (Caco-2 monolayers [7]; 50 mM CAGE, various time points) was 7-10 fold and the TEER drop (Caco-2 cells [2]; 10 mM CAGE, 1 h) was 29%. The TEER decrease (Caco-2 cells [2]; 25 mM CAGE) was 40-50% and ~40%, the TEER decrease (Caco-2 cells [2]; 50 mM CAGE) was 40-50% and ~50% and the “TEER recovery, % of initial level” value (Caco-2 cells [2]; 50 mM CAGE, 24 h) was 58%. For the same compound, the “area increase between 2 h and 4 h” value [8] was “about 2 ×”, the “enhancement of FITC-insulin transport vs no CAGE” value (from here on “enhancement … vs no CAGE”) (Caco-2 monolayers [9]; 10 mM CAGE (Example 9)) was 1.5-2 fold and the “enhancement of insulin transport compared to insulin in saline” value (Caco-2 monolayers [9]; 10 mM CAGE, Caco-2, 5 h study) was 3-4 fold. For the same compound, the “higher transport of insulin compared to insulin-saline treated cells” value (Caco-2 monolayers [9]; 10 mM CAGE, all time points over 5 h) was “at least 3 times”, the “enhancement … vs no CAGE” value (Caco-2 monolayers [9]; 25 mM CAGE) was 1.5-2 fold and the “enhancement … vs no CAGE” value (Caco-2 monolayers [9]; 50 mM CAGE, all time points) was over 10 fold. The “decrease in blood glucose of control groups, % of initial level” value [10] was “about 25%”.

With “insulin isolated from CAGE: insulin stored in CAGE, isolated by centrifugation and washing, re-suspended in sterile saline” the bioactivity after storage ([11]; stored at 4° C. with CAGE, 4 months) was “did not show any loss in bioactivity; also recorded: retained its bioactivity”, the “blood glucose, % of initial level” value ([11]; stored in CAGE at RT for 3 months, 1 h) was 61.57±2.38% and 62±2% and the “blood glucose, % of initial level” value ([11]; stored in CAGE at RT for 3 months, 2 h) was 61.98±3.19% and 62±3%. For the same compound, the “drop in blood glucose” value ([11]; stored in CAGE at RT for 3 months, 1 and 2 h after injection) was 38%.

For “orally administered insulin solution: literature comparator of Ansari et al.”, the oral bioavailability [12] is listed as 1.7%.
